Results as given in PubChem BioAssay (NCI).
Where “and” joins values, the source holds several entries; their conditions need not be identical. Equal entries are not always repeated.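 Briefly, cells in 96-well plates were exposed to five compound concentrations for 48 h, and endpoints were estimated by linear interpolation. GI50 is the concentration that inhibits growth by half. TGI is the concentration that stops growth completely.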

Tests used:
Experiment in all cases: NCI-60 cell line screen, 48 h
[1] = tested on: M14 melanoma
[2] = tested on: SK-MEL-5 melanoma
[3] = tested on: CCRF-CEM leukemia
[4] = tested on: SW-620 colon
[5] = tested on: OVCAR-8 ovarian
[6] = tested on: A498 renal
[7] = tested on: CAKI-1 renal
[8] = tested on: PC-3 prostate
[9] = tested on: NCI/ADR-RES ovarian
[10] = tested on: BT-549 breast

SMILES | TGI [1] | TGI [2] | TGI [3] | TGI [4] | TGI [5] | TGI [6] | TGI [7] | TGI [8] | TGI [9] | TGI [10] | GI50 [8] | GI50 [9] | GI50 [6] | GI50 [1] | GI50 [10] | GI50 [2] | GI50 [3] | GI50 [4] | GI50 [5] | GI50 [7]
Cc1c(C#N)c(=O)[nH]c(=O)n1CCN1CCN(C(=O)NCCCCCCNC(=O)N2CCN(CCn3c(C)c(C#N)c(=O)[nH]c3=O)CC2)CC1 | > 100 µM | > 100 µM | > 100 µM | > 100 µM | > 100 µM | > 100 µM | > 100 µM | – | – | – | – | – | – | – | – | – | – | – | – | –
O=C(O)C1(P(=O)(O)O)CC1 | 76.4 µM | > 100 µM | > 100 µM | > 100 µM | > 100 µM | > 100 µM | > 100 µM | – | – | – | – | – | – | – | – | – | – | – | – | –
COc1cc2c(cc1OC(=O)CC(C)O)C1C(OC2=O)C(OC(C)=O)C=C2CCN(C)[C@H]21 (stereo partly drawn) | > 100 µM | > 100 µM | > 100 µM | > 100 µM | > 100 µM | 45.5 µM | > 100 µM | – | – | – | – | – | – | – | – | – | – | – | – | –
CS(=O)(=O)c1ccc(C(=O)Nc2ccc(Cl)c(-c3ccccn3)c2)c(Cl)c1 | > 100 µM and 11.1 µM | – | > 100 µM | > 100 µM and 13.2 µM | > 100 µM and 25.5 µM | > 100 µM and 46.3 µM | – | > 100 µM and 33.7 µM | > 100 µM and 25.7 µM | – | – | – | – | – | – | – | – | – | – | –
COc1cc(C(=O)C/C(CCC(=O)Nc2ccccc2[N+](=O)[O-])=N\NC(=O)CC#N)ccc1O | > 100 µM | > 100 µM | > 100 µM | > 100 µM | > 100 µM | > 100 µM | > 100 µM | – | – | – | – | – | – | – | – | – | – | – | – | –
CC(=O)OC1CCn2nnc(CO[Si](C)(C)C(C)(C)C)c21 (stereo not drawn) | > 100 µM | > 100 µM | – | > 100 µM | > 100 µM | – | > 100 µM | – | – | – | – | – | – | – | – | – | – | – | – | –
CCCCNCC(=O)O[C@]1(CC)C(=O)OCc2c1cc1n(c2=O)Cc2cc3ccccc3nc2-1 | 7.23 µM | 1.27 µM | 0.723 µM | – | – | 4.64 µM | – | > 100 µM | 2.03 µM | 8.36 µM | – | – | – | – | – | – | – | – | – | –
C=CCOC1OC(CO[Si](C)(C)C(C)(C)C)C(OCc2ccccc2)C(OCc2ccccc2)C1OCc1ccccc1 (stereo not drawn) | > 100 µM | > 100 µM | > 100 µM | > 100 µM | > 100 µM | – | > 100 µM | > 100 µM | > 100 µM | > 100 µM | – | – | – | – | – | – | – | – | – | –
CCC1CN2CCc3cc(OC)c(OC)cc3C2CC1CC1c2cc(OC)c(OC)cc2CCN1C(=O)C1CCCN1C(=O)OCc1ccccc1 (stereo not drawn) | 30.9 µM | 28.8 µM | – | 28 µM | 31.7 µM | 29.9 µM | 47.3 µM | – | – | – | – | – | – | – | – | – | – | – | – | –
CCOC(=O)C1Oc2ccc([N+](=O)[O-])c3c2C1(O)CCC3 (stereo not drawn) | > 100 µM | > 100 µM | > 100 µM | > 100 µM | > 100 µM | > 100 µM | – | – | – | – | – | – | – | – | – | – | – | – | – | –
O=S(=O)(c1ccccc1)C(CN1CCCCC1)S(=O)(=O)c1ccccc1 | > 100 µM | – | > 100 µM | > 100 µM | > 100 µM | – | > 100 µM | – | – | – | – | – | – | – | – | – | – | – | – | –
C[C@]12CCC3[C@@H](CC[C@@H]4c5nonc5CC[C@]34C)C1CCC(=O)N2 (stereo partly drawn) | > 100 µM | > 100 µM | > 100 µM | > 100 µM | > 100 µM | > 100 µM | > 100 µM | > 100 µM | > 100 µM | – | 68.3 µM | > 100 µM | > 88.8 µM | – | – | – | – | – | – | –
O=C(C1CCCCC1)[C@@H]1[C@]2(C(=O)NC3CCCCC32)[C@@H]2CCCN2[C@@]12C(=O)NC1CCC(Cl)CC12 (stereo partly drawn) | 253 µM | 234 µM | 137 µM | 238 µM | 394 µM | 265 µM | 225 µM | – | 310 µM | 286 µM | – | 127 µM | 130 µM | 116 µM | 145 µM | 110 µM | 32.3 µM | 98.6 µM | 162 µM | 80.8 µM
Nn1c(-c2ccccc2Cl)nc2ccccc2c1=O | > 100 µM | > 100 µM | > 100 µM | > 100 µM | > 100 µM | > 100 µM | > 100 µM | – | – | – | – | – | – | – | – | – | – | – | – | –
N#CC(C(=O)CCC(=O)Nc1cccc(Cl)c1)c1ccccc1 (stereo not drawn) | > 100 µM | > 100 µM | > 100 µM | – | > 100 µM | > 100 µM | – | – | – | – | – | – | – | – | – | – | – | – | – | –
O=C(NN1C(=O)CSC12CCCCC2)c1[nH]c2ccc(F)cc2c1-c1ccccc1 | > 100 µM | > 100 µM | 96.7 µM | 87.5 µM | 31.9 µM | 76.5 µM | > 100 µM | 35.9 µM | – | > 100 µM | 18.8 µM | – | 27.1 µM | 38.2 µM | 33.8 µM | 41.4 µM | 29.7 µM | 26.6 µM | 18 µM | 31.9 µM
COc1ccc(C(OCC2OC(n3ccc(NC(=O)c4ccccc4)nc3=O)C(O)C2O)(c2ccccc2)c2ccccc2)cc1 (stereo not drawn) | 3.62 µM | 3.32 µM | 4.39 µM | 5.8 µM | 3.22 µM | 2.97 µM | 5.79 µM | 8.28 µM | 4.89 µM | – | – | – | – | – | – | – | – | – | – | –
O=C1c2ccccc2-c2c1c1ccc([N+](=O)[O-])cc1c(=O)n2CCCBr | > 100 µM | – | – | > 100 µM | > 100 µM | – | > 100 µM | > 100 µM | – | > 100 µM | > 100 µM | – | – | 3.26 µM | > 100 µM | – | – | 5.26 µM | > 100 µM | 3.23 µM
CNC(=O)OCc1c(COC(=O)NC)c(C)n(-c2ccc(Br)cc2)c1C | 32.5 µM | 28.1 µM | 48.2 µM | 27.3 µM | 24.8 µM | 3.21 µM | > 100 µM | 65.8 µM | 34.9 µM | – | – | – | – | – | – | – | – | – | – | –
O[C@H]1CO[C@H]2[C@@H]1OC[C@@H]2Oc1ccc(Nc2ccnc(Nc3ccc(O[C@H]4CO[C@H]5[C@@H]4OC[C@@H]5O)c(Cl)c3)n2)cc1Cl | 4.18 µM | 2.43 µM | 5.31 µM | 6.86 µM | 11.3 µM | – | 10.2 µM | 11.2 µM | > 100 µM | 8.14 µM | 2.26 µM | 5.82 µM | – | 1.48 µM | 2.2 µM | 1.17 µM | 0.666 µM | 2.36 µM | 1.38 µM | 1.79 µM
C=C1COC(/C=C(\C)CC/C=C(\C)CCl)C1 (stereo not drawn) | > 100 µM | > 100 µM | > 100 µM | > 100 µM | > 100 µM | > 100 µM | – | – | – | – | – | – | – | – | – | – | – | – | – | –
COc1ccc(C2CC(c3cc(OC)c(OC)c(OC)c3)=NN2C(C)=O)cc1OCC(=O)Nc1nc2ccc(C(F)(F)F)cc2s1 (stereo not drawn) | > 100 µM | > 100 µM | – | > 100 µM | > 100 µM | 9.7 µM | – | > 100 µM | > 100 µM | 82 µM | 2.92 µM | 3.13 µM | 2.78 µM | 6.44 µM | 3.55 µM | 3.56 µM | – | > 100 µM | 3.36 µM | –
